Target: T1, KOD-plus DNA polymerase (Thermococcus kodakarensis, UniProt P77933, DEL407-766/DEL853-1389)
T1 construct: purchased Toyobo
Format: biochemical, Thermococcus kodakaraensis KOD1
Procedure: The effect produced by the addition of oxalate ion to a hot start enzyme was investigated using a hot start enzyme KOD-plus DNA polymerase containing KOD α-type enzyme) and two kinds of KOD antibodies. The PCR buffer supplied with KOD-plus (manufactured by Toyobo), 0.2 mM dNTPs and 0.3 μM of a primer pair of SEQ ID Nos:8 and 9 were used. PCR was performed using 2.5 U KOD-plus DNA polymerase and 20 ng of Genomic DNA derived from human cell line K562 as a template to investigate the influence of varying the concentration of oxalate ion added on the PCR results. The PCR conditions were as follows: 1 preliminary reaction of 94° C. for 2 minutes, and then 35 cycles of 94° C. for 15 seconds, 60° C. for 30 seconds and 68° C. for 8.5 minutes. The PCR was performed using GeneAmp2400 (PE Applied Biosystems).

T1 sequence (P77933 other isoform, or with tags, fused parts or gaps DEL407-766/DEL853-1389): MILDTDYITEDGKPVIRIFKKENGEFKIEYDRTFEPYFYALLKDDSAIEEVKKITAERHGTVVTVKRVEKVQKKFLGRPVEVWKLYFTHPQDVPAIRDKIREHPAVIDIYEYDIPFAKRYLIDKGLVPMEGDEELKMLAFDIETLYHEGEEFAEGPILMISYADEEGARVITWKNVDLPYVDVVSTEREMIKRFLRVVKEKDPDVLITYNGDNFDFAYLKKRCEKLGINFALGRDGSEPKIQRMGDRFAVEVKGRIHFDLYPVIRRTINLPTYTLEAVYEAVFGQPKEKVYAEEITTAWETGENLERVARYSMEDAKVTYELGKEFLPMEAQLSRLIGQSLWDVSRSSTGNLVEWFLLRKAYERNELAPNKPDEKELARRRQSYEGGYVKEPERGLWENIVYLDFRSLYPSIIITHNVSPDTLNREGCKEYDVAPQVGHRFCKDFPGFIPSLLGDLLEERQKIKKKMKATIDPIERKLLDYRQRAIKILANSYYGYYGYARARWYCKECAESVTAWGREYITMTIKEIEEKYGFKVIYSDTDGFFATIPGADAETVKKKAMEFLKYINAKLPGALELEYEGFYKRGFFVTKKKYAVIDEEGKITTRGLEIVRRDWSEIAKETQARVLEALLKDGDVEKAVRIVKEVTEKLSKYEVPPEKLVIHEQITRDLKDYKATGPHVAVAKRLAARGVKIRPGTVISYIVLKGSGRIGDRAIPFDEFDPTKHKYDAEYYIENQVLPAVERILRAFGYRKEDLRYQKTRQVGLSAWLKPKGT

Question: With `O=C([O-])C(=O)[O-].[K+].[K+]` [potassium oxalate] as the compound, how does the “amount of the target DNA amplified” value (5 mM of potassium oxalate) read?
Answer: a decrease in the amount of the target DNA amplified was found

Question: And the “optimal concentration of potassium oxalate” value (FIG. 8)?
Answer: about 3 mM

Question: What about the “effect on extra bands and target amplification” value (in the presence of potassium oxalate, FIG. 8) of the same compound?
Answer: no extra bands were observed and only the target DNA was amplified
